US8460685B2, “Method of improving the osteoinductivity of calcium phosphate” (Progentix Orthobiology B.V., priority 2005, dated 2013)

Assays:
[1] = test system: dorsal muscles of goats; assay: Osteoinductive potential of TCP ceramic loaded with lithium chloride, intramuscular implantation in goats (histology, histomorphometry); assay type: in vivo; settings: LiCl in TCP; improved osteoinductivity
Method: The osteoinductive potential of TCP ceramic loaded with lithium chloride was tested in a pilot study in muscle of goats. After sterilization (autoclaving at 121° C. for 30 minutes), a volume of 1.0 cc of 1-3 mm ceramic particles (granules) of each TCP-only, TCP with 5 mmol LiCl/100 g, TCP with 15 mmol LiCl/100 g and TCP with 45 mmol LiCl/100 g were implanted in dorsal muscles of 4 goats for 12 weeks (total 4 implants in each of 4 goats).
(§1) Twelve weeks after implantation the animals Were sacrificed and the implants were harvested with surrounding tissues and fixed in 1.5% glutaraldehyde in 0.14M cacodylate buffer. The fixed samples were dehydrated in a graded series of aqueous ethanol solutions (70%, 80%, 90%, 96% and 100%×2) and finally embedded in MMA. Non-decalcified sections (10-20 μm) were prepared and stained with methylene blue and basic fuchsin for histological observation and histomorphometrical analysis regarding bone formation.
Histomorphometry was performed on the sections across the middle of the implants with regard to the percentage of the formed bone in the available space.

[2] = test system: dorsal muscles of goats; assay: Osteoinductive potential of sodium fluoride-loaded TCP ceramic, intramuscular implantation in goats (histology, histomorphometry); assay type: in vivo; settings: NaF in TCP; improved osteoinductivity
Method: The osteoinductive potential of sodium fluoride-loaded TCP ceramic was tested in a pilot study in muscles of goats. After sterilization (autoclaving at 121° C. for 30 minutes), a volume of 1.0 cc of 1-3 mm ceramic particles (granules) of each TCP-only, TCP with 8 mmol NaF/100 g, TCP with 16 mmol NaF/100 g and TCP with 24 mmol NaF/100 g were implanted in dorsal muscles of 4 goats for 12 weeks (total 4 implants in each of 4 goats).
as §1, with “were” for “Were”, “methyl methacrylate (MMA). Using standard procedures non-decalcified” for “MMA. Non-decalcified”, “made” for “prepared”
Histomorphometry was performed on the sections across the middle of the implants and to the percentage of the formed bone in the available space was measured using image analysis.

Compound	effective amount of trace element in TCP [1]	optimum amount of trace element in TCP [1]	effective amount of trace element in TCP [2]	optimum amount of trace element in TCP [2]
[Cl-].[Li+] [LiCl, lithium chloride]	5-45 mmol LiCl/100 g	around 15 mmol LiCl/100 g TCP	–	–
[F-].[Na+] [NaF, sodium fluoride]	–	–	8-24 mmol NaF/100 g	around 16 mmol NaF/100 g TCP
